Where a SMILES comes first, the peptide text is derived from it. Bridges are numbered along the chain shown (N, C = ends). Where no end group is shown, it is not given here. rhodamine = not defined here
Legend:
[1] = molecular target: T1, frizzled-1 (rFzd-1) (Rattus norvegicus, UniProt Q08463); test: Activity assay: Wnt3a-induced luciferase (superTOPflash) in HEK cells transfected with frizzled-1; format: cell-based; details: for Blocking of Wnt3a-induced luciferase activity, rFzd-1: peptide 1.10^−8 M
T1 construct: expressed in transfected cells; host or cells: HEK293 superTOPflash (human embryonic kidney), transient, pcDNA3.1/hygro
Method: (§1) Human embryonic kidney (HEK) cells were used for screening. These cells have a luciferase construct stably transfected into the genome (see FIG. 2A), such that when the frizzled receptor is activated and β-catenin is increased, the luciferase is activated by transcription and light can be measured.
(§2) The peptides were tested by transfecting the frizzled-1 or the frizzled-2 receptor and addition of UM206(S-S) to the cell culture. For testing antagonistic activity, UM206 was added and the natural ligand Wnt3a was added, which is a natural stimulus for the canonical pathway.
(§3) Day 2: Transfection 12-well plates • heat Fugene6 and DNA 15 minutes at RT • 2 ml serum-free medium in tube • add 3μl fugene • add 2 μg DNA • incubate 30 minutes at RT • wash with PBS • add 50 μtransfectiemix • add 1 ml antibiotica-free medium
(§4) Day 3: Add conditioned medium or UM206
(§5) Day 4: Luciferase activity measurements • remove medium • wash with PBS • add 500 μl ⅕ lysisbuffer • shake for 60 minutes • centrifuge in tube • 20 μl lysaat and 50 μl luciferase in new tube for measurement • vortex • measure
(§6) To determine the inhibitory constant of UM206-8, HEK293-superTOPflash cells were transfected with either rFzd-1 or -2 and incubated with Wnt3a (10^−9M) in the presence of increasing concentrations of either of the peptides (FIG. 15). For UM206, a biphasic inhibition curve was observed that was best fitted with a two-binding-state model.
(§7) The cell lines were cultured in 75 cm^2 culture flasks (Corning, Schiphol, the Netherlands) in Dulbeco's modified essential medium with L-glutamine (2 mM), 10% fetal calf serum (Invitrogen, Merelbeke, Belgium), and 1% gentamycin (Sigma-Aldrich, Zwijndrecht, The Netherlands). Before starting the experiment, the cell lines were treated with plasmocin 25 μg/ml (Invivogen, Toulose, France) and tested with a mycoalert mycoplasma detection kit (Lonza, Rockland Me., USA). Cells were transiently transfected with Fugene6 (Roche, Indianapolis Ind., USA) with plasmid DNA, pcDNA3.1/hygro (Invitrogen) with frizzled-1/2/4 or Wnts 3a-5a or with pcDNA3.0 (Invitrogen) containing the β-catenin or frizzled-5 sequence. After transfection, the cells were cultured for 24 hours in conditioned medium, collected from the cultured L-cells, L-cells with Wnt3a or 5a (Invitrogen). At the same moment the antagonist was added.

[2] = molecular target: T2, frizzled-2 (rFzd-2) (Rattus norvegicus, UniProt Q08464); test: Activity assay: Wnt3a-induced luciferase (superTOPflash) in HEK cells transfected with frizzled-2; format: cell-based; details: for Blocking of Wnt3a-induced luciferase activity, rFzd-2: peptide 1.10^−8 M
T2 construct: expressed in transfected cells; host or cells: HEK293 superTOPflash (human embryonic kidney), transient, pcDNA3.1/hygro
Method: as §1, §2, §3, §4, §5, §6, §7

[3] = test system: frizzled receptor; test: Activity on the frizzled receptor (activity assay of Example 1), result in words; format: cell-based
Method: as §1, §2
Analogues of UM206 were prepared by solid phase peptide synthesis. Each amino acid residue was sequentially replaced by an alanine residue and antagonistic activity of the analogue was tested as described in the activity assay of Example 1. […] Titles indicate which amino acid residue was substituted by an alanine residue.

[4] = molecular target: T3, hFzd-4 (Homo sapiens, UniProt Q9ULV1); test: Luciferase activity in HEK293 superTOPflash cells overexpressing hFzd-4; format: cell-based; details: FIG. 3, Panel F
T3 construct: expressed in transfected cells; host or cells: HEK293 superTOPflash, transient, pcDNA3.1/hygro
T3 sequence (Q9ULV1 37-537): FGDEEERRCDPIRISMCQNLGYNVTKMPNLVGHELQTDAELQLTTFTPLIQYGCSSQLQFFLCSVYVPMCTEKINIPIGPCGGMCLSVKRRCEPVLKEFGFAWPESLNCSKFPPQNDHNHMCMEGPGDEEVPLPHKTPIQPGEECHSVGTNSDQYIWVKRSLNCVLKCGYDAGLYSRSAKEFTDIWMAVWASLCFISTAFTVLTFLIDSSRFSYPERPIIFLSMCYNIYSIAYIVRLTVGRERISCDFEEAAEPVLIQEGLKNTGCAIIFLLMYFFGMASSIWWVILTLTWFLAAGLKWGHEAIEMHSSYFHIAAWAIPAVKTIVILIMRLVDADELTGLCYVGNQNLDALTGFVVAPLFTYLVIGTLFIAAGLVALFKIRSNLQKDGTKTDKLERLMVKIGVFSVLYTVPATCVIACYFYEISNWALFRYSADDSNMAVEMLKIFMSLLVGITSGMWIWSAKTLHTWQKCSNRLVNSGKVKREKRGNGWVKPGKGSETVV
Method: (§8) In FIG. 3, Panel E, the efficacy of UM206 to block the Wnt3a-induced activation of luciferase activity in HEK293 superTOPflash cells transfected with different Fzds is shown.
as §7

[5] = molecular target: T4, hFzd-5 (Homo sapiens, UniProt Q13467); test: Luciferase activity in HEK293 superTOPflash cells overexpressing hFzd-5; format: cell-based; details: FIG. 3, Panel F
T4 construct: expressed in transfected cells; host or cells: HEK293 superTOPflash, transient, pcDNA3.0
Method: as §8, §7

[6] = test system: Wnt/Fzd signal transduction cascade; test: Luciferase activity in HEK293-superTOPflash cells (Wnt/Fzd signal transduction cascade); format: cell-based, human; details: for Luciferase activity induced by the peptide by itself: without Wnt3a
Description: as §1
Three areas of high homology that contained two cysteines are underlined (UM207), (UM208) and (UM206). In FIGS. 9B through 9D, the inhibitory effect of these three peptides on Wnt3a-induced luciferase activity in HEK293-superTOPflash is shown. […] Again, the peptides by themselves had no effect on the luciferase activity.

[7] = test system: Fzd-1 and -2; test: UM206-Rhodamine binding to frozen sections of mouse kidney and gut and its blocking; details: 1.10^−8 M
Method: Specificity of the binding site was confirmed by prior incubation of the tissue sections with UM207 (1.10^−8 M) or recombinant Wnt3a (1.10^−8 M).
One-half of the hearts of the mice was embedded in paraffin and cut in 4 μm sections. The paraffin sections were rehydrated and washed in PBS. One section was stained with AZAN, allowing an accurate determination of the infarct size. To visualize the myofibroblasts in the infarct area, the sections were incubated with an antibody directed against a-smooth muscle actin (Sigma-Aldrich), followed by incubation with the peroxidase-conjugated secondary antibody (Vector laboratories). Nuclei were visualized by hematoxylin. Photos were taken with a Leica (CTR500, 63x/0.85) camera and analyzed with the Quantimet program (QWin/QGo). An examiner blinded to the groups of the animals obtained all measurements. For the experiments with Rhodamine-labeled UM206, frozen sections (4 μm) of mouse kidney and small intestine were used.

[8] = test system: C-FIT cells (cardiac fibroblasts immortalized with telomerase); test: Migration (wound/scratch) assay with C-FIT cells overexpressing Fzd-1 or -2; format: cell-based, rat
Method: For this assay, we used rat cardiac fibroblasts, which were immortalized with telomerase, the C-FIT cell line. This cell line was characterized previously and resembles features of primary cardiac fibroblasts. C-FIT cells were plated, treated when they were 70% confluent and a wound was made with a pipette tip at the moment of 100% confluence.
This assay was first tested with the natural ligand Wnt3a, in combination with frizzled-1 and -2 overexpression. […] Next step was to see whether the antagonist could counteract this. (See FIG. 4.)
Day 1: • Plate cells in 12-well plates
Day 2: • Transfection (see protocol)
Day 3: • Addition of conditioned medium
Day 4: • Make a scratch. This is time point zero.
Making pictures every six hours and analyzing the scratch width.
Cells were plated on day 0, and cultured until 70% confluence before transfection or treatment. Migration assays started 48 hours after transfection and/or treatment. The time point where the scratch was made, is indicated as 0 hours. Scratch width was measured at this time point, and also after 6, 12, and 24 hours.

T2 sequence (Q08464 29-570): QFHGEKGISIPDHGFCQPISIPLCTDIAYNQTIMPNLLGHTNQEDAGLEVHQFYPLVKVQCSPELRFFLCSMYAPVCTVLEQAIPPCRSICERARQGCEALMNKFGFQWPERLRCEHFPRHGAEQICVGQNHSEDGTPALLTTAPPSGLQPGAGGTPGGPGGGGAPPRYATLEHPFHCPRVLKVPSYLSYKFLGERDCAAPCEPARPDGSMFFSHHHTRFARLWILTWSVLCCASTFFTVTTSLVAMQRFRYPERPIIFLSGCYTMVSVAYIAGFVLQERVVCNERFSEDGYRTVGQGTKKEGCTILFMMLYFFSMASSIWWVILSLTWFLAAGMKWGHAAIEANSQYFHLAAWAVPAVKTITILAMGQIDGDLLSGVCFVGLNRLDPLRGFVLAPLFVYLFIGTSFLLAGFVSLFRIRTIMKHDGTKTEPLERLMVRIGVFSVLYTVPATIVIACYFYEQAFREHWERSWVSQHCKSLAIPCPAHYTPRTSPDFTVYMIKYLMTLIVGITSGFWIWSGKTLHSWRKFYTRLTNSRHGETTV
T1 sequence (Q08463 69-641): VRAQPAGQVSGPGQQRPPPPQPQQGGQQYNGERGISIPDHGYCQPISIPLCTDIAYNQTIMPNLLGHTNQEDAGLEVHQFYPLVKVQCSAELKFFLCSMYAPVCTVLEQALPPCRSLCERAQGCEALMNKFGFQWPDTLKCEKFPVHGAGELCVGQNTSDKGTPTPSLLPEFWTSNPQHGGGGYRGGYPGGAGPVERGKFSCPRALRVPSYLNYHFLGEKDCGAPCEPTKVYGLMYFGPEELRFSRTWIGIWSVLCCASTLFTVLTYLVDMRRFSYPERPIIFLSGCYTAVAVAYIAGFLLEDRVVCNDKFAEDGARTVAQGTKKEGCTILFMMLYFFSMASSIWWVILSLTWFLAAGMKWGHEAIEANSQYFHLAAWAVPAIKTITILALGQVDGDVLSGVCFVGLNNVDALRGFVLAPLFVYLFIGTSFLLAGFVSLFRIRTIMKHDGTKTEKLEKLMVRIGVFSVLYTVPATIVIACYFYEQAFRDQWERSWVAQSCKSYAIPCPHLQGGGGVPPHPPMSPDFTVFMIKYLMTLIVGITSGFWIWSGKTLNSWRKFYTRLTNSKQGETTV
T4 sequence (Q13467 27-585): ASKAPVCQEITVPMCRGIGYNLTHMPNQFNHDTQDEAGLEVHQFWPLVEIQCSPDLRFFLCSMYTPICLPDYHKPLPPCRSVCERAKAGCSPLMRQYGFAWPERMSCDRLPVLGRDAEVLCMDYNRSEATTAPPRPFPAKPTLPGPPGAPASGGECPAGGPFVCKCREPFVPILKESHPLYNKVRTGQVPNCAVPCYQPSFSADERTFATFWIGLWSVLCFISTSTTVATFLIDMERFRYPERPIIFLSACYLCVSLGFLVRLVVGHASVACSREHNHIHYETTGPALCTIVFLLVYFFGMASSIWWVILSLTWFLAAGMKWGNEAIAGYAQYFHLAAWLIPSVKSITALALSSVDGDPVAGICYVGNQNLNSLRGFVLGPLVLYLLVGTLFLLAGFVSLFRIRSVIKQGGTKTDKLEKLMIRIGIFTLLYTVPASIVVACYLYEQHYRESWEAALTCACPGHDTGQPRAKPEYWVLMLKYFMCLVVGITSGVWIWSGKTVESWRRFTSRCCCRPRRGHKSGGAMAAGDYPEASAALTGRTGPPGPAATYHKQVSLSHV

## CC[C@H](C)[C@H](NC(=O)CNC(=O)[C@H](Cc1c[nH]cn1)NC(=O)[C@H](CO)NC(=O)[C@H](CO)NC(=O)[C@@H](NC(=O)[C@H](CC(N)=O)NC(=O)[C@H](CS)NC(C)=O)C(C)C)C(=O)N[C@@H](CC(=O)O)C(=O)NCC(=O)N[C@@H](CS)C(=O)N[C@@H](CC(=O)O)C(=O)N[C@@H](CC(C)C)C(N)=O [CNVSSHGIDGCDL] (Ac-CNVSSHGIDGCDL-NH2; N-terminus assumed)
[1]; 1.0
  % of inhibition for Fzd-1: 45.32%
[2]; 1.0
  % of inhibition for Fzd-2: 62.41%
[3]
  Activity on the frizzled receptor (in words): showed antagonistic properties too, albeit that the potency was lower than that of UM206

## CSCC[C@@H]1NC(=O)CNC(=O)[C@H](CCC(=O)O)NC(=O)[C@H](CO)NC(=O)[C@H]([C@@H](C)O)NC(=O)[C@H](CCCCN)NC(=O)[C@H](CC(N)=O)NC(=O)[C@@H](NC(C)=O)CSSC[C@@H](C(=O)N[C@@H](CCC(=O)O)C(=O)N[C@@H](CC(C)C)C(N)=O)NC(=O)CNC(=O)[C@H](CC(=O)O)NC1=O [UM206(S-S)] (Ac-CNKTSEGMDGCEL-NH2; disulfide 1-11)
[1]; FIG. 3, Panel F
  Agonist activity, frizzled-1: specific agonist
[2]; FIG. 3, Panel F
  Agonist activity, frizzled-2: specific agonist
[4]
  Agonist activity, frizzled-4: not for frizzled-4 or frizzled-5
[5]
  Agonist activity, frizzled-5: not for frizzled-4 or frizzled-5

## CC[C@H](C)[C@H](NC(=O)CNC(C)=O)C(=O)N[C@@H](CCCCN)C(=O)N[C@@H](CCC(=O)O)C(=O)N[C@@H](CS)C(=O)N[C@@H](CCC(N)=O)C(=O)N[C@@H](Cc1ccc(O)cc1)C(=O)N[C@@H](CCC(N)=O)C(=O)N[C@@H](Cc1ccccc1)C(=O)N[C@@H](CCCNC(=N)N)C(=O)N[C@@H](Cc1c[nH]cn1)C(=O)N[C@@H](CCCNC(=N)N)C(=O)N[C@@H](CCCNC(=N)N)C(=O)N[C@@H](Cc1c[nH]c2ccccc12)C(=O)N[C@@H](CC(N)=O)C(=O)N[C@@H](CS)C(=O)N[C@@H](CO)C(=O)N[C@H](C(=O)N[C@H](C(=O)N[C@@H](CC(=O)O)C(N)=O)C(C)C)[C@@H](C)O [UM207] (Ac-GIKECQYQFRHRRWNCSTVD-NH2)
[1]
  Blocking of Wnt3a-induced luciferase activity, rFzd-1: blocked almost completely
[2]
  Blocking of Wnt3a-induced luciferase activity, rFzd-2: blocked almost completely
[3]
  Activity on the frizzled receptor (in words): potent antagonist
[6]
  Luciferase activity induced by the peptide by itself: none of the three peptides by itself could induce an increase in luciferase activity
[7]
  Blocking of UM206-rhodamine binding by prior incubation: completely abolished the binding

## CC(=O)NCC(=O)N[C@@H](CO)C(=O)N[C@@H](CS)C(=O)N[C@@H](CO)C(=O)N[C@@H](CC(C)C)C(=O)N[C@@H](CCCCN)C(=O)N[C@H](C(=O)N[C@@H](CS)C(=O)N[C@@H](Cc1c[nH]c2ccccc12)C(=O)N[C@@H](CC(C)C)C(=O)N[C@@H](CCC(N)=O)C(=O)N[C@@H](CC(C)C)C(=O)N[C@@H](C)C(=O)N[C@@H](CC(=O)O)C(N)=O)[C@@H](C)O [UM208, GSCSLKTCWLQLAD] (Ac-GSCSLKTCWLQLAD-NH2)
[1]
  Blocking of Wnt3a-induced luciferase activity, rFzd-1: blocked almost completely
[2]
  Blocking of Wnt3a-induced luciferase activity, rFzd-2: blocked almost completely
[6]
  Luciferase activity induced by the peptide by itself: none of the three peptides by itself could induce an increase in luciferase activity

## UM206-rhodamine: UM206 with rhodamine attached to Lys^3 (Ac-CNK(rhodamine)TSEGMDGCEL-NH2; reading uncertain; also: printed as Ac-Cys-Asn-Lys-Thr-Ser-Glu-Gly-Met-Asp-Gly-Cys-Glu-Leu-NH2)
[7]; 15 minutes, two-foton microscopy
  Staining of frozen sections of mouse kidney and gut: staining of tubular epithelium and panneth cells

## UM207 S-S: UM207 forced to form a cyclic structure by inducing a S-S bond between the two cysteine residues (GIKECQYQFRHRRWNCSTVD-NH2; disulfide 5-16 (inferred); not fully specified (N-terminus))
[3]
  Activity on the frizzled receptor (in words): potent agonist

## Wnt3a
[2]; concentration-dependent
  Increase of the luciferase activity by natural ligand in combination with frizzled-2: twelve-fold
[6]; HEK293-superTOPflash, no Fzd transfection
  Increase of luciferase activity on addition of Wnt3a: ~450 fold
[8]
  Effect of Wnt protein on migration of CFIT overexpressing rFzd-1 or -2: attenuated the migration
[7]
  Blocking of UM206-rhodamine binding by prior incubation: completely abolished the binding

B1: Wnt5a: natural ligand (Wnt protein) for frizzled-1 and frizzled-2 (protein, listed as Homo sapiens)
chain: FFLMALATFFSFAQVVIEANSWWSLGMNNPVQMSEVHIIGAQPLCSQLAGLSQGQKKLCHLYQDHMQYIGEGAKTGIKECQYQFRHRRWNCSTVDNTSVFGRVMQIGSRETAFTYAVSAAGVVNAMSRACREGELSTCGCSRAARPKDLPRDWLWGGCGDNIDYGYRFAKEFVDARERERIHAKGSYESARILMNLHNNEAGRRTVYNLADVACKCHGVSGSCSLKTCWLQLADFRKVGDALKEKYDSAAAMRLNSRGKLVQVNSRFNSPTTQDLVYIDPSPDYCVRNESTGSLGTQGRLCNKTSEGMDGCELMCCGRGYDQFKTVQTERCHCKFHWCCYVKCKKCTEIVDQFVCK
[8]
  Effect of Wnt protein on migration of CFIT overexpressing rFzd-1 or -2: attenuated the migration

From patent publication US8598122B2, “Antagonistic peptides for frizzled-1 and frizzled-2” (Universiteit Maastricht, priority 2009, dated 2013)
